Activity calls are given as the source filed them. The calls are words filed in the database; no cut-off is given here.
Molecular target: T1, Glycylpeptide N-tetradecanoyltransferase 1 (Homo sapiens, UniProt P30419)
T1 sequence (P30419 whole entry): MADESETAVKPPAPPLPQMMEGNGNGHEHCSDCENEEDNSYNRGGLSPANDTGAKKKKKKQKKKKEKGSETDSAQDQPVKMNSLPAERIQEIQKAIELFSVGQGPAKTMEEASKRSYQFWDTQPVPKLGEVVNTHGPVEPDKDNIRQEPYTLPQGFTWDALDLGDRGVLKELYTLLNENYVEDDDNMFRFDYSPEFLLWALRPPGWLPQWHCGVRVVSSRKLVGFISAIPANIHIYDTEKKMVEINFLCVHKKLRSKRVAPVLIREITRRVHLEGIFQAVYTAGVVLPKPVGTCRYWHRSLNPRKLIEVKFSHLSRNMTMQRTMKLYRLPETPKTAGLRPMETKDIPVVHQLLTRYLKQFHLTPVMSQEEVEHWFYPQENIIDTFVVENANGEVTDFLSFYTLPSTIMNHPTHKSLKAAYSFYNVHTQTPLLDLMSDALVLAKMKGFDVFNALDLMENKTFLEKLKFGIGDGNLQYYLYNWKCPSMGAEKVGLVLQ
Settings: not given

SMILES | IC50 [µM]
Cc1nn(C)c(C)c1NS(=O)(=O)c1ccc(NCc2ccc3[nH]ccc3c2)nc1 | 2.7
Cc1nn(C)c(C)c1NS(=O)(=O)c1c(Cl)cc(-c2cccc3c2CCNC3)cc1Cl | 4.3
Cc1nn(C)c(C)c1NS(=O)(=O)c1ccc(N2CCC(N3CCNCC3)C2)nc1 (stereo not given) | 1.6
Cc1nn(C)c(C)c1NS(=O)(=O)c1ccc(NCCN2CCN(C(=O)OC(C)(C)C)CC2)nc1 | > 10
Cc1nn(C)c(C)c1NS(=O)(=O)c1c(Cl)cc(-c2ccc(CN3CCN(C)CC3)cc2)cc1Cl | 4.2
Cc1nn(C)c(C)c1NS(=O)(=O)c1ccc(NCCN2CCN(Cc3ccccc3)CC2)nc1 | > 10
Cc1nn(C)c(C)c1NS(=O)(=O)c1ccc(Cl)nc1 | > 100
Cc1nn(C)c(C)c1NS(=O)(=O)c1ccc(NCCCn2ccnc2)nc1 | 8.7
Cc1nn(C)c(C)c1NS(=O)(=O)c1c(Cl)cc(-c2cccc3cnccc23)cc1Cl | > 100
Cc1nn(C)c(C)c1NS(=O)(=O)c1ccc(NCCN2CCN(c3ccccc3)CC2)nc1 | > 1
Cc1nn(C)c(C)c1NS(=O)(=O)c1ccc(NCCCN2CCN(C)CC2)nc1 | 2.4
Cc1nn(C)c(C)c1NS(=O)(=O)c1ccc(NCCN2CCN(C(C)C)CC2)nc1 | > 1

Test system: not listed separately
Experiment: Dissociation constant, pKa of the compound
Assay type: physicochemical
Settings: not given

SMILES | pKa
Cc1nn(C)c(C)c1NS(=O)(=O)c1ccc(NCCCn2ccnc2)nc1 | 7.1
Cc1nn(C)c(C)c1NS(=O)(=O)c1ccc(NCCN2CCN(C)CC2)nc1 | 7.9
Cc1nn(C)c(C)c1NS(=O)(=O)c1ccc(NCCN2CCNCC2)nc1 | 9.3
Cc1nn(C)c(C)c1NS(=O)(=O)c1ccc(NCCC2CCN(C)CC2)nc1 | 9.6

Test system: not listed separately
Experiment: Fraction unbound in mouse plasma
Assay type: ADME, cell-free
Settings: not given

SMILES | fraction unbound
Cc1nn(C)c(C)c1NS(=O)(=O)c1c(Cl)cc(-c2ccnc(N3CCNCC3)c2)cc1Cl [listing 1 of 2 here] | 0.11

Test system: Trypanosoma brucei brucei
Experiment: Antitrypanosomal activity against Trypanosoma brucei brucei GVR35 infected in NMRI mouse assessed as increase in survival time at 100 mg/kg, po bid administered on day 21 post infection for 5 days after 21 days relative to control
Assay type: functional, organism-based
Set-up: dose 100 mg/kg
Settings: not given

SMILES | Survival
Cc1nn(C)c(C)c1NS(=O)(=O)c1c(Cl)cc(-c2ccnc(N3CCNCC3)c2)cc1Cl [listing 2 of 2 here] | inactive

Test system: Trypanosoma brucei brucei
Experiment: Antitrypanosomal activity against Trypanosoma brucei brucei GVR35 infected in NMRI mouse assessed as increase in survival time at 20 mg/kg, ip qd for 5 days measured after 180 days
Assay type: functional
Settings: route intraperitoneal

SMILES | survival at 20 mg/kg [%]
Nc1nc(N)nc(Nc2ccc([As]3SCC(CO)S3)cc2)n1 (stereo not given) [MELARSOPROL] | 100

Test system: Trypanosoma brucei
Experiment: Antimicrobial activity against blood stream form Trypanosoma brucei BSF427 expressing VSG118 after 69 hrs by resazurin-based fluorescent assay
Assay type: functional, organism-based
Settings: BSF427, 69 h

SMILES | EC50 [µM]
Cc1nn(C)c(C)c1NS(=O)(=O)c1c(Cl)cc(-c2ccc(CN3CCN(C)CC3)cc2)cc1Cl | 3.6

— ChEMBL document CHEMBL1949590, “Discovery of a novel class of orally active trypanocidal N-myristoyltransferase inhibitors” (J Med Chem, 2012)
